Experimental data taken from patent US20210113692A1, “DOSING REGIMEN” (IMCLONE, LLC, priority 2016, published 2021).
Values joined by “and” are separate entries in the source; they are usually repeats but may differ in a detail not shown here. Identical values can stand only once. “Also recorded” adds a separate entry of the source. Like-named read-outs stand apart in the source and are kept apart here.

Assays:
[1] = system: patients with advanced STS; assay: Matched case-control exposure-response analysis of OS and PFS across quartiles of olaratumab serum levels; assay type: in vivo, human
Description: (§1) Pharmacokinetics and Exposure-response Analysis of The “Study”: The PFS, OS, PK and safety data from patients who received olaratumab in the Study, as discussed above, were analyzed.
(§2) The effect of olaratumab serum levels is explored using average serum concentration (Cavg) and trough serum concentration after cycle 1 (Cmin1). The PFS and OS data are analyzed using a matched case-control (MCC) analysis across quartiles of olaratumab serum levels and a time-to-event (survival) model with a constant baseline hazard and a Hill function to describe the effect of olaratumab. The rate of treatment-emergent adverse events (TEAEs) is compared across quartiles of olaratumab exposure.

[2] = system: patients with advanced STS; assay: Randomized Phase 2 Study of doxorubicin with or without olaratumab (NCT01185964): PFS, OS, ORR; assay type: in vivo, human; settings: for median OS / median PFS: Phase 2 Study
Description: The Study is an open-label, multicenter, Phase 2 trial in which patients with advanced STS not amenable to treatment with surgery or radiotherapy are treated with olaratumab in combination with doxorubicin or doxorubicin alone.
Enrolled patients who meet all eligibility criteria are randomized 1:1 to one of two treatment arms. Arm A or Arm B. Arm A patients receive olaratumab in combination with doxorubicin (hereinafter the “Combination Arm”) and Ann B patients receive doxorubicin alone (hereinafter the “Doxonthicin Arm”), Randomization of this Study is performed according to a dynamic randomization algorithm using 4 pre-defined risk factors: PDGFRα expression (positive vs. negative), number of previous lines of treatment (0 vs. 1+ lines), histological tumor type (i.e., leiomyosarcoma vs. synovial sarcoma vs. other tumor type), and ECOG performance status (0-1 vs. 2). This dynamic randomization procedure is used to minimize imbalance between treatment groups. To determine tumor type and PDGFRCL expression in patients, a tumor sample from either a biopsy or previously archived tumor tissue sample is sufficient. Biopsy is required to be performed within 21 days prior to randomization; archived tissue sample must also be available within this timeframe.
Combination Arm: 66 patients randomized in the Combination Ann receive 15 mg/kg of olaratumab on Days 1 and 8 of each 21-day treatment cycle, in combination with 75 mg/m^2 doxorubicin administered on Day 1 of each cycle. (Note: if premedication is required prior to the first doxorubicin infusion, this is to be done after the completion of olaratumab infusion, not before the olaratumab infusion. This premedication may be administered within the hour that follows completion of the olaratumab infusion.) The actual (not planned) administration of each doxorubicin infusion defines Day 1 of each 21-day treatment cycle. The combination treatment just described is to continue for up to 8 cycles at the investigator's discretion. During Cycles 5 through 8, patients being treated with doxorubicin may also be administered 750 mg/m^2 dexrazoxane on Day 1 of each cycle, (at the investigator's discretion) prior to doxorubicin on Day 1 of each 21-day cycle. If the dose of doxorubicin is reduced at any point in the Study, the dose of dexrazoxane is to be reduced accordingly, maintaining a dosage ratio of 10:1. For example, if doxorubicin is reduced to 60 mg/m^2, then dexrazoxane is to be reduced to 600 mg/m^2. Doxorubicin may be administered within the hour that follows completion of the olaratumab infusion. In the absence of PD or other withdrawal criteria, patients in the Combination Arm who have completed eight cycles of therapy are to receive subsequent olaratumab monotherapy, administered on Days 1 and 8 of each 21-day cycle. Furthermore, if doxorubicin is discontinued (e.g., for reasons of toxicity) prior to end of cycle 8 and in the absence of withdrawal criteria, patients may continue to receive olaratumab monotherapy. For patients who discontinue olaratumab during the first 8 cycles of treatment, doxorubicin may be continued (for up to 8 cycles), provided no withdrawal criteria are met.
Doxorubicin Arm: 67 patients randomized in the Doxorubicin Arm receive 75 mg/m^2 doxorubicin on Day 1 of each cycle, for up to 8 cycles at the investigator's discretion. The actual (not planned) administration of each doxorubicin infusion defines Day 1 of each 21-day treatment cycle. During cycles 5 through 8, 750 mg/m^2 dexrazoxane may also be administered on Day 1 of each cycle, (at the investigator's discretion) prior to doxorubicin on Day 1 of each 21-day cycle. If the dose of doxorubicin is reduced at any point in the Study, the dose of dexrazoxane is to be reduced accordingly, maintaining a dosage ratio of 10:1. For example, if doxorubicin is reduced to 60 mg/m^2, then dexrazoxane is to be reduced to 600 mg/m^2. […]

[3] = parameters: species or system human; settings: in vivo
Description: The rate of treatment-emergent adverse events (TEAEs) is compared across quartiles of olaratumab exposure.

[4] = Olaratumab serum concentrations (pharmacokinetics) in the Study
Description: Serum levels can be measured by an enzyme-linked immunosorbent assay; a test that uses antibodies and color change to identify and quantify a substance.
as §1, §2

[5] = Population PK (PopPK) model using PK data from 4 Phase 2 studies; assay type: in vivo, human; settings: irrespective of indication
Text: • Population Pharmacokinetics Analysis of the Four Phase 2 Clinical Studies: A population PK (PopPK) model was developed using PK data from 4 Phase 2 studies (www.clinicaltrials.gov study numbers NCT00918203 (A Randomized Phase 2 Study of Human Anti-PDGFRα. Monoclonal Antibody (IMC-3G3) With Paclitaxel/Carboplatin or Paclitaxel/Carboplatin Alone in Previously Untreated Patients With Locally Advanced or Metastatic Non-Small Cell Lung Cancer), NCT01185964 (A Phase 1b/2 Randomized Phase 2 Study Evaluating the Efficacy of Doxorubicin With or Without a Human Anti-PDGFRα Monoclonal Antibody (IMC-3G3) in the Treatment of Advanced Soft Tissue Sarcoma), NCT00895180 (An Open Label, Phase 2 Study Evaluating the Safety and Efficacy of IMC-3G3 or MC-1121B in Patients With Recurrent Glioblastoma Multiforme), and NCT01316263 (A Phase 2 Study of a Human Anti-PDGFRα Monoclonal Antibody (IMC-3G3) in Previously Treated Patients With Unresectable and/or Metastatic Gastrointestinal Stromal Tumors (GIST)). […] A Randomized, Double Blind, Placebo-Controlled, Phase 3 Trial of Doxorubicin Plus Olaratumab Versus Doxorubicin Plus Placebo in Patients With Advanced Soft Tissue Sarcoma (the “Phase 3 Study”) The present invention is being further tested in the Phase 3 Study (trial number NCT02451943 available on clinicaltrials.gov https://clinicaltrials.gov/ct2/show/NCT02451943?term=ANNOUNCE&rank=1).

[6] = system: patients with advanced STS; assay: Time-to-event (survival) model of the effect of olaratumab serum levels on PFS/OS hazard; assay type: in vivo, human; settings: Cmin1-based and Cavg-based models
Text: Further, FIG. 1, illustrates the predicted effect of olaratumab on HR for PFS. In FIG. 1. PFS as predicted by Cmin1-based model is shown in the left panel and the Cavg-based model is shown in the right panel. The solid red lines describe the change in HR as a function of Cmin1 and Cavg; the grey histograms describe the distribution of olaratumab Cmin1 and Cavg in the Study experimental arm together with their quartiles (dashed blue lines) the green dashed lines indicate ECmin150 and ECavg50.

[7] = Cavg Q1 (56 < 134.4) μg/mL, 15 patients per group
[8] = Cavg Q3 (≥175.2-<249.9) μg/mL, 15 patients per group
[9] = Cavg Q4 (≥249.9-347.3) μg/mL, 16 patients per group
[10] = Cmin1 Q1 (12.3-<62.8) μg/mL, 15 patients per group
[11] = Cmin1 Q2 (≥62.8-<86.9) μg/mL, 16 patients per group
[12] = Cmin1 Q4 (≥105.6-188.1) μg/mL, 16 patients per group

COc1cccc2c1C(=O)c1c(O)c3c(c(O)c1C2=O)C[C@@](O)(C(=O)CO)C[C@@H]3O[C@H]1C[C@H](N)[C@H](O)[C@H](C)O1 [doxorubicin]
Number of events, overall survival [1, 7]: 15/13 | Number of events, progression-free survival [1, 7]: 15/14 | Number of events, progression-free survival ([1]; Cavg Q2 (≥134.4-<175,2) μg/mL, 16 patients per group): 16/10 | Number of events, overall survival ([1]; Cavg Q2 (≥134.4-<175.2) μg/mL, 16 patients per group): 16/14 | Number of events, overall survival [1, 8]: 15/7 | Number of events, progression-free survival [1, 8]: 15/8 | Number of events, overall survival [1, 9]: 16/11 | Number of events, progression-free survival [1, 9]: 16/12 | Number of events, overall survival [1, 10]: 15/12 | Number of events, progression-free survival [1, 10]: 15/11 | Number of events, overall survival [1, 11]: 16/13 | Number of events, progression-free survival [1, 11]: 16/9 | Number of events, overall survival ([1]; Cmin1 Q3 (≥86.9-<105.6) μg/mL, 15 patients per group): 15/8 | Number of events, progression-free survival ([1]; Cmin1 Q3 (≥86.9=<105.6) μg/mL, 15 patients per group): 15/10 | Number of events, overall survival [1, 12]: 16/10 | Number of events, progression-free survival [1, 12]: 16/11 | median OS ([2]; final analysis): 14.7 months | median PFS ([2]; final analysis): 4.1 months | median progression-free survival, blinded independent retrospective review ([2]; in vivo): 4.4 months | objective response rate, independent assessment ([2]; in vivo): 7.5% | objective response rate ([2]; investigator assessment, RECIST 1.1): 11.9% | Mucositis Grade <=2 (consolidated TEAE), number of patients ([3]; human): 20 | Mucositis Grade <=2, % (consolidated TEAE) ([3]; human): (30.8) % | Mucositis Grade >2 (consolidated TEAE), number of patients ([3]; human): 3 | Mucositis Grade >2, % (consolidated TEAE) ([3]; human): (4.6) % | Mucositis Grade >=4 (consolidated TEAE), number of patients ([3]; human): 0 | Neutropenia Grade <=2 (consolidated TEAE), number of patients ([3]; human): 3 | Neutropenia Grade <=2, % (consolidated TEAE) ([3]; human): (4.6) % | Neutropenia Grade >2 (consolidated TEAE), number of patients ([3]; human): 22 | Neutropenia Grade >2, % (consolidated TEAE) ([3]; human): (33.8) % | Neutropenia Grade >=4 (consolidated TEAE), number of patients ([3]; human): 17 | Neutropenia Grade >=4, % (consolidated TEAE) ([3]; human): (26.2) % | TEAE Overall Grade <=2, % ([3]; human): (29.2) % | TEAE Overall Grade <=2, number of patients ([3]; human): 19 | TEAE Overall Grade >2, % ([3]; human): (69.2) % | TEAE Overall Grade >2, number of patients ([3]; human): 45 | TEAE Overall Grade >=4, % ([3]; human): (30.8) % | TEAE Overall Grade >=4, number of patients ([3]; human): 20

olaratumab
OS improvement in the lowest exposure quartile ([1]; Cmin1<63 μg/mL, N=15): no improvement in OS; also recorded: did not show OS improvement; also recorded: did not have OS | PFS and OS improvement in the upper quartiles of olaratumab serum exposure ([1]; regardless of Cmin at end of cycle 1 or average serum concentration): greater improvement in progression-free survival and overall survival | stratified HR for overall survival ([2]; Combination Arm vs Doxorubicin Arm, final analysis): 0.46 | median OS ([2]; final analysis): 26.5 months | median PFS ([2]; final analysis): 6.6 months | stratified HR for progression-free survival ([2]; olaratumab plus doxorubicin vs doxorubicin, final analysis): 0.672 | Mucositis Grade <=2 (consolidated TEAE), number of patients [3]: 32 | Mucositis Grade <=2, % (consolidated TEAE) [3]: (51.6) % | Mucositis Grade >2 (consolidated TEAE), number of patients [3]: 2 | Mucositis Grade >2, % (consolidated TEAE) [3]: (3.2) % | Mucositis Grade >=4 (consolidated TEAE), number of patients [3]: 0 | Neutropenia Grade <=2 (consolidated TEAE), number of patients [3]: 3 | Neutropenia Grade <=2, % (consolidated TEAE) [3]: (4.8) % | Neutropenia Grade >2 (consolidated TEAE), number of patients [3]: 35 | Neutropenia Grade >2, % (consolidated TEAE) [3]: (56.5) % | Neutropenia Grade >=4 (consolidated TEAE), number of patients [3]: 23 | Neutropenia Grade >=4, % (consolidated TEAE) [3]: (37.1) % | TEAE Overall Grade <=2, % [3]: (19.4) % | TEAE Overall Grade <=2, number of patients [3]: 12 | TEAE Overall Grade >2, % [3]: (79.0) % | TEAE Overall Grade >2, number of patients [3]: 49 | TEAE Overall Grade >=4, % [3]: (40.3) % | TEAE Overall Grade >=4, number of patients [3]: 25 | mean maximum serum concentration (Cmax) after the first dose ([4]; 15 mg/kg, cycle 1): 284 µg/mL | mean maximum serum concentration (Cmax) after the second dose ([4]; 15 mg/kg, cycle 1): 293 µg/mL | Cavg range ([4]; Overall, n = 62, average over entire treatment): 56.0 to 347.3 µg/mL | Cmin1 range ([4]; Overall, n = 62, trough at the end of Cycle 1): 12.3 to 188.1 µg/mL | mean trough serum concentration (Cmin) at the end of the cycle ([4]; cycle 1): 66.5 µg/mL | individual apparent terminal elimination half-life ([4]; during cycle 3): 6.67 days and 14.4 days | cycle in which steady state is reached ([4]; in vivo): 3 cycle | cycle in which steady-state olaratumab serum levels are achieved (PopPK model) [5]: ≥ 3 Cycle | predicted effect of olaratumab on HR for PFS (FIG. 1) [6]: not predicted to change until the Cmin1 or Cavg reaches values corresponding to the 25th percentile of their distribution in the study
